# Data: a melting point compilation (Tetko et al.; mined from patent text by program, amines drawn as free bases though some values may be those of a salt)
# Residues, ends and D or L forms follow the SMILES beside them. *: point of attachment. Bz = O=C(c1ccccc1)*
row,melting point,SMILES
1,145 to 147 °C,COC(=O)C1(n2c(=O)[nH]c3ccccc3c2=O)CCCCC1
2,237 to 239 °C,CCNC(=O)[C@H](C)NC(=O)[C@H](C)NC(=O)c1ccccc1 (Bz-Ala-Ala-NHEt)
3,140 to 142 °C,CCN1c2ncc(CSc3ccncc3)cc2C(=O)N(C)c2ccc(Cl)nc21
4,158 to 159 °C,Cc1oc(-c2cccc(Br)c2)nc1CCOc1ccc(OC(C)(C)C(=O)O)cc1
5,292 to 293 °C,CS(=O)(=O)c1ccc(-c2cc(C(N)=O)nn2-c2ccc(C(=O)O)cc2)cc1
6,225 to 226 °C,COC(=O)c1ccc(C=CC(=O)Nc2cnc3c(C)cc(C)cc3c2-c2ccccc2Cl)cc1
7,179 to 180 °C,CNC(=O)C(c1ccc(F)cc1)c1ccc(F)cc1
8,188 to 190 °C,Cc1cc(C)cc(NC(=O)c2cc(Br)ccc2O)c1
9,62 to 64 °C,COc1ccc(/C=C/c2cc(Cl)cc(Cl)c2)cc1
10,288 °C,O=C(Nc1cc(=O)n(-c2c(Cl)cc(C(F)(F)F)cc2Cl)[nH]1)c1ccccc1
11,180 to 181 °C,Cc1ccc(P2(=O)c3ccccc3CN2c2ccccc2)cc1 (centres undefined)
12,241 to 243 °C,CCOCc1nc2c(N)nc3ccccc3c2n1CC(C)(C)C(N)=O
13,> 300 °C,COc1cc2cc3c(Cl)c(C#N)cnc3cc2cc1O
14,180 to 182 °C,Cc1cnc(C2=NC(C)(C(C)C)C(=O)N2)c(C(=O)C(=O)N(C)C)c1 (centres undefined)
15,173 to 175 °C,CCCc1ccc2nc(COc3ccc(F)c(C(N)=O)c3F)sc2c1
16,168 to 173 °C,COCc1nc2c3c(ccn2c1C)C(=O)[C@H](O)[C@@H](c1ccccc1)N3
17,152 to 155 °C,COCC(C)OC(=O)C(=O)Nc1nc(-c2ccccc2)cs1 (centres undefined)
18,116 to 118 °C,Oc1cnccc1CCCOc1cccnc1Oc1cccc(Br)c1
19,95 to 96 °C,CCOC(=O)c1cc(CCCOc2c(C)cc(-c3noc(C)n3)cc2C)on1
20,232 to 234 °C,CC(=O)Nc1c(I)c(C(=O)OCOC(=O)C(C)(C)C)c(I)c(N(C)C(C)=O)c1I
21,98 °C,CCS(=O)(=O)c1ncc(C(F)(F)F)cn1
22,100 to 102 °C,O=C1COC(CCc2ccccc2)CN1 (centres undefined)
23,195 to 197 °C,CCN1C(=O)CC(C(=O)O)C1c1c(Cl)cccc1Cl (centres undefined)
24,107 to 108 °C,Cc1cccc(CC(Nc2ccccc2)C(=O)NC(C#N)COCc2ccc(F)c(C(=O)O)c2)c1 (centres undefined)

row,melting point,SMILES
1,234 to 239 °C,COc1ccc(C=C2SC(=S)N(CC(=O)O)C2=O)cc1OCc1ccccc1
2,81 °C,CCc1oc2ccccc2c1C(=O)c1ccc(OC)cc1
3,163 to 165 °C,Cc1cc2c(-c3ccccc3)c(CN)n(C)c(=O)c2cc1C
4,148 °C,O=C(c1nc(-c2ccccc2)nc2ccccc12)N1CCOCC1
5,194 to 198 °C,O=Cc1ccc2c(c1)Sc1cc(C=O)ccc1N2c1ccccc1
6,178 to 179 °C,CCOC(=O)c1c(Cn2cnnc2)nc2cc(OC)c(OC)cc2c1-c1ccc(OC(C)C)c(OC)c1
7,55 °C,COC(=O)c1ccn2cc(Cc3cccc(F)c3C)c(-c3ccccc3)c2c1
8,188 to 190 °C,COc1ccc(CC(=O)NC(NC(=NC#N)Nc2cccnc2OC)C(C)(Cl)Cl)cc1OC (centres undefined)
9,50 °C,CSc1ccc([N+](=O)[O-])cc1C(F)(F)F
10,94 to 96 °C,CCOC(=O)c1c2ccc(Cl)cc2c(-c2ccccc2)n1CCCO
11,149 to 150 °C,Cc1nn2c(-c3cccc(C(F)(F)F)c3)ccnc2c1C#N
12,136 to 137 °C,COC(=O)CC(C(=O)OC)N1C(=O)C2NC(C)(C)SC21 (centres undefined)
13,87 to 89 °C,CC1(C2C(=O)N(CC(F)(F)F)c3ccccc32)OCCO1 (centres undefined)
14,198 °C,NS(=O)(=O)c1cccc(-c2cn(-c3nc(-c4ccc(C(F)(F)F)cc4)cc(C(F)(F)F)n3)cn2)c1
15,165 °C,COc1ccc(N2CCOCC2)c2sc(C(=O)NCC(=O)c3ccccc3)nc12
16,204 °C,O=C1c2cccc(-n3c(=O)[nH]c4cnccc4c3=O)c2C2CC3(CCN12)OCCO3 (centres undefined)
17,214 to 216 °C,O=C(O)Cn1c(-c2cccc(Cl)c2)nc2cccnc21
18,105 to 110 °C,CCOC(=O)c1c(N2CCN(C(=O)c3cccs3)CC2)c2cccnc2n(Cc2ccccc2F)c1=O
19,142 to 143 °C,Cc1cc(N(C)CC(=O)N2CCN(Cc3ccc4c(c3)OCO4)CC2)ccc1Oc1ccc([N+](=O)[O-])cn1
20,91 to 93 °C,CCCCCOC(=O)NS(=O)(=O)CCc1cc(OCCCC)nn1Cc1ccc(Cl)cc1Cl
21,> 270 °C,Cc1ccc(C)n1-c1cc2c(cc1C(F)(F)F)[nH]c(=O)c(=O)n2CC(=O)O
22,170 to 172 °C,C[Si](C)(c1ccc(N(c2ccccc2)c2ccccc2)cc1)c1ccc(N(c2ccccc2)c2ccccc2)cc1
23,103 to 104 °C,Cc1ccc(OCc2nc(-c3ccccc3)oc2C)cn1
24,192 to 195 °C,Cc1ccc2c(c1)N(CC(=O)c1ccccc1C)C(=O)C(NC(=O)Nc1ccc(C)c(C(=O)O)c1)CN2C(=O)c1cccs1 (centres undefined)

row,melting point,SMILES
1,177 to 180 °C,CCn1cc(C(=O)O)c(=O)c2cc(F)c(N3CCNC(CF)C3)cc21 (centres undefined)
2,158 to 159 °C,C=C(C)OC(=O)N1C(=O)[C@H](C)Nc2cc(Cl)ccc21
3,182 to 185 °C,O=C(Nc1nc(=O)n(S(=O)(=O)c2ccccc2)cc1F)Oc1ccccc1
4,82 to 83 °C,C#CCCCCCCCOc1cccc(C(N)=O)c1
5,174 to 175 °C,COc1ccc(-c2cc(=O)c3c(O)cc(OC)cc3o2)cc1
6,92 to 98 °C,Cc1cc(O)c(O)cc1Br
7,245 to 247 °C,O=C(Nc1ccc(C(=O)Nc2ccc(Br)cn2)cn1)c1ccc(Br)nc1
8,140 °C,Cc1cc(C)cc(N(CCO)Cc2ccc3nc(NCCCN4CCOCC4)n(Cc4nc(C)c(C)nc4C)c3c2)c1
9,172 to 175 °C,COC(=O)C(c1ccc(O)cc1)N1CC(NC(=O)Cc2ccccc2)C1=O (centres undefined)
10,143 to 145 °C,CC(C)C(=O)Nc1ccc(I)c(C(F)(F)F)c1
11,220 °C,COC(=O)c1cc2cc(C(=O)c3ccc(F)cc3)sc2s1
12,148 to 150 °C,CCOC(=O)Cc1ccc(NC(=O)C(CO)NS(=O)(=O)c2ccc(F)cc2)cc1 (racemic)
13,145 to 146 °C,COc1ccc(Cn2cnc3c(-c4ccco4)nc(OC(C)C)nc32)cc1
14,180 to 184 °C,C[C@@H]1CNC(=O)c2cc3c(Cl)cccc3n21
15,62 to 65 °C,CCCCC1(CCCC)CCc2c(OCc3ccc4ccccc4n3)cccc2C1O (centres undefined)
16,185 to 186 °C,Cc1noc(NC(=O)N2CCN(c3cc(-c4cccc(F)c4)ncn3)CC2)c1C
17,141 to 144 °C,FC(F)(F)C(c1ccc(Cl)cc1)C(c1ccccc1)c1ccc(OCC2CO2)cc1 (centres undefined)
18,82.5 to 84 °C,COC(=O)c1nc(N2CCCC2)ccc1O
19,237 °C,O=C(Nc1ccc2ccc(Cl)nc2n1)C1=CSCCS1
20,90 °C,O=C1OC(Cc2ccccc2)CN1c1ccccc1 (centres undefined)
21,170 to 172 °C,C[Si](Cl)(Cl)C(c1ccccc1)(c1ccccc1)c1ccccc1
22,123 °C,CN1CCC(C2c3sccc3CCn3ncnc32)CC1 (centres undefined)
23,216 to 218 °C,CNC(=S)NCCn1c(=O)ccc2c(C)cc(C)nc21
24,94.2 to 96.2 °C,C[C@H]1CCCC(C)(C)[C@@H]1[C@H](O)c1ccc(Cl)c(Cl)c1

row,melting point,SMILES
1,70 to 73 °C,c1cncc(-c2cc(C3CC3)on2)c1
2,202 to 204 °C,CC(O)(c1nc2ccc(S(=O)(=O)c3ccccc3)cc2c(=O)[nH]1)C(F)(F)F (centres undefined)
3,184 to 185 °C,O=C(O)CC(Cc1c[nH]c2ccccc12)(C(=O)O)C(=O)O
4,196 to 197 °C,CCOC(=O)CCNC(=O)c1oc2cc(-c3ccc(Cn4c(C)nc5ccccc54)cc3)ccc2c1C
5,75 to 77 °C,C[C@H](C(=O)O)[C@H](O)CCCCc1ccccc1
6,101 to 104 °C,COC(=O)c1cc(Cn2cncc2C)cc(C(C)(C)C#N)c1
7,282 to 284 °C,O=c1c(C2CCCC2)coc2cc(O)cc(Cl)c12
8,213 to 215 °C,O=[N+]([O-])c1ccc(C=Cc2ccncn2)cc1
9,167 to 170 °C,COc1cccc(-c2cccc3nc(Nc4cc(OC)c(OC)c(OC)c4)oc23)c1
10,122 to 124 °C,Cc1cn(C(C)(C)C(=O)N(C)C)nc1-c1ccc(Cl)cc1
11,244 to 245 °C,COC(=O)[C@H](Cc1ccc(NC(=O)c2c(Cl)cccc2Cl)cc1)NC(=O)c1c(C)cccc1Cl
12,157 to 160 °C,Cc1ccc(-c2ccc3nc(C)c(C(=O)Nc4ccc(CN(C)C5CCOCC5)cc4)cc3c2)cc1
13,242 to 244 °C,Cc1ccc(N2C(=O)NC(=O)C23CCN(C(=O)c2ccccc2)CC3)cc1
14,130 to 132 °C,CC(C)n1nc(-c2c(OCCN(C)C)nc(N)nc2-c2ccccc2)ccc1=O
15,51 to 53 °C,OCc1nccc(N2CCCCC2)c1Br
16,235 °C,Nn1ncc2c1-c1cc3ccccc3nc1CC2
17,149 to 150 °C,C=CCC1(CC=C)c2cc(Br)ccc2-c2ccc(Br)cc21
18,122 to 123 °C,CC(C)(O)CC1NC(=O)c2ccccc21 (centres undefined)
19,176 °C,O=c1ccc2cc([C@H](c3cccc(C(F)(F)F)c3)n3cncn3)ccc2[nH]1
20,194 to 196 °C,CCCn1c(COC)nc2c(N)nc3ccc(OCC4CCCN(C)C4)cc3c21 (centres undefined)
21,147 °C,CC(C)(c1cccc(C(F)(F)F)c1)N1C[C@H]([C@H](Cc2ccccc2)NC(=O)c2cc(C(=O)O)c3n2CCN(S(C)(=O)=O)C3)OC1=O
22,140 to 142 °C,COc1cc(OC)nc(C(=O)c2nscc2C(=O)N(C)c2ccccc2)n1
23,85 °C,CCCCCCCCCCCCCCCCCCOc1ccc(O)c(C(=O)N(N)C(=O)OCCCCCCCC)c1
24,149 to 151 °C,O=C(NCC12CC3CC(CC(C3)C1)C2)c1ccccc1C(c1ccc(O)cc1)c1ccc(O)cc1

row,SMILES,melting point
1,Cc1c(N[C@@H](c2nnc(-c3ccc(F)c(O)c3)o2)[C@H](C)O)ccc(C#N)c1Cl,103 to 108 °C
2,COc1ccc(C(C#N)=NO)cc1,141 °C
3,Cc1ccccc1C(=O)NC(=O)NC1CN2CCC1CC2 (centres undefined),216 to 217 °C
